In this experiment the target is T1, Glucocorticoid Receptor (GR) (Homo sapiens, UniProt P04150).
T1 construct: purchased Invitrogen P2893
T1 sequence (P04150 1-777): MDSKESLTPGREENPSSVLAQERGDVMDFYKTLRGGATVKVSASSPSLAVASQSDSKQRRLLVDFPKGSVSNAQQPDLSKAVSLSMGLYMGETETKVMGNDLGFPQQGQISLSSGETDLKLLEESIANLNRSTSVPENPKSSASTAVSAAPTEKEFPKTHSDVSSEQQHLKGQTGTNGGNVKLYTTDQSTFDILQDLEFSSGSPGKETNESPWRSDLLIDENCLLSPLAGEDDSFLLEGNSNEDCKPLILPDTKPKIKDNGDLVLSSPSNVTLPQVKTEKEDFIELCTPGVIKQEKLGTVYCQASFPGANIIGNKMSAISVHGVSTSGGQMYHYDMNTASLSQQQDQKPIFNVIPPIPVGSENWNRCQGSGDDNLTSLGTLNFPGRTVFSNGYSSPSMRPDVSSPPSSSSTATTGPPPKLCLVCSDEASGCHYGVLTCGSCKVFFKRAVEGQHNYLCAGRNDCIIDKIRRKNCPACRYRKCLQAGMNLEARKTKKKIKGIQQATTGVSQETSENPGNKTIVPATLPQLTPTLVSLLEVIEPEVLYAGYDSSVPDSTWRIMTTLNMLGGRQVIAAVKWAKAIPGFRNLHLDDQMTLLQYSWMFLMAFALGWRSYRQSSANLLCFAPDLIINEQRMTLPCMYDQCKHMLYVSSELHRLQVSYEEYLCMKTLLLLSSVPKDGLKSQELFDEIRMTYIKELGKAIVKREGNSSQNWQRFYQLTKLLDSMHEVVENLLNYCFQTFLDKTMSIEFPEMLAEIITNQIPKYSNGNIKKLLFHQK
Briefly: GR Florescence Polarization Assay (PolarScreen Glucocorticoid Receptor Competitor Assay, Red). To be noted: Fluorescense polarization binding ranges; competition with fluorescent glucocorticoid, incubated overnight at 4° C. In short, it runs like this:
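Competitive fluorescence polarization using fluorescent glucocorticoid tracer and human GR in kit buffer. Compounds serially diluted 1:4 in DMSO, incubated with tracer and GR overnight at 4 °C before polarization read.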

With `CCC[C@@]12CC[C@](O)(Cc3ccccc3)C[C@@H]1CCCc1cc(C(=O)Nc3cccnc3C)ccc12.CCC[C@]12CC[C@@](O)(Cc3ccccc3)C[C@H]1CCCc1cc(C(=O)Nc3cccnc3C)ccc12` [Example 34, (7aS,9R,11aR)-9-Benzyl-9-hydroxy-11a-propyl-6,7,7a,8,9,10,11,11a-octahydro-5H-dibenzo[a,c]cycloheptene-3-carboxylic acid (2-methyl-pyridin-3-yl)-amide; compound with (7aR,9S,11aS)-9-benzyl-9-hydroxy-11a-propyl-6,7,7a,8,9,10,11,11a-octahydro-5H-dibenzo[a,c]cycloheptene-3-carboxylic acid (2-methyl-pyridin-3-yl)-amide], the IC50 (commonly the midpoint of a concentration-inhibition curve) was below 100 nM.
Then `CC[C@@]1(O)CC[C@@]2(Cc3ccccc3)c3ccc(C(=O)N(C)c4cccnc4C)cc3CCC[C@H]2C1` [Example 89, (7aS,9R,11aS)-11a-Benzyl-9-ethyl-9-hydroxy-6,7,7a,8,9,10,11,11a-octahydro-5H-dibenzo[a,c]cycloheptene-3-carboxylic acid methyl-(2-methyl-pyridin-3-yl)-amide], with 100 to 1000 nM; and `CC[C@]1(O)CC[C@]2(CC)c3ccc(C(=O)Nc4cccnc4C)cc3COC[C@@H]2C1` [Example 141], with above 10000 nM; and `CCC[C@@]1(O)CC[C@@]2(CC)c3ccc(C(=O)Nc4cccnc4C)cc3C=CC[C@H]2C1` (single isomer, unassigned) [Example 129], with 100 to 1000 nM.
Then `CC[C@]12CC[C@@](O)(CC3CC3)C[C@H]1CCCc1cc(C(=O)Nc3cccnc3C)ccc12` [Example 50], with 100 to 1000 nM; and `CC[C@@]1(O)CC[C@@]2(Cc3ccccc3)c3ccc(C(=O)Nc4ncccc4C)cc3CCC[C@H]2C1` [Example 73], with below 100 nM.
The result for `CCC[C@@]1(O)CC[C@@]2(CC)c3ccc(C(=O)Nc4ccccc4Cl)cc3CCC[C@H]2C1` [Example 151, (7aS,9R,11aR)-11a-Ethyl-9-hydroxy-9-propyl-6,7,7a,8,9,10,11,11a-octahydro-5H-dibenzo[a,c]cycloheptene-3-carboxylic acid (2-chloro-phenyl)-amide] reads below 100 nM; that for `C#C[C@]1(O)CC[C@@]2(Cc3ccccc3)c3ccc(C(=O)Nc4cccnc4C)cc3CCC[C@H]2C1` (racemic) [Example 32, (7aS,9S,11aS)-11a-Benzyl-9-ethynyl-9-hydroxy-6,7,7a,8,9,10,11,11a-octahydro-5H-dibenzo[a,c]cycloheptene-3-carboxylic acid (2-methyl-pyridin-3-yl)-amide; compound with (7aR,9R,11aR)-11a-benzyl-9-ethynyl-9-hydroxy-6,7,7a,8,9,10,11,11a-octahydro-5H-dibenzo[a,c]cyclo heptene-3-carboxylic acid (2-methyl-pyridin-3-yl)-amide], below 100 nM; that for `Cc1ncccc1NC(=O)c1ccc2c(c1)CCC[C@@H]1C[C@@](O)(C(F)(F)F)CC[C@@]21Cc1ccccc1` [Example 106, (7aR,9R,11aS)-11a-Benzyl-9-hydroxy-9-trifluoromethyl-6,7,7a,8,9,10,11,11a-octahydro-5H-dibenzo[a,c]cycloheptene-3-carboxylic acid (2-methyl-pyridin-3-yl)-amide], below 100 nM.
Consider `Oc1ccc2c(c1)CCC[C@H]1C[C@@](O)(c3ccccc3)[C@H](O)C[C@@]21Cc1ccccc1` (racemic) [Example 42, (2R,3R,4aS,11bR)-11b-Benzyl-3-phenyl-2,3,4,4a,5,6,7,11b-octahydro-1H-dibenzo[a,c]cycloheptene-2,3,9-triol compound with (2S,3S,4aR,11bS)-11b-benzyl-3-phenyl-2,3,4,4a,5,6,7,11b-octahydro-1H-dibenzo[a,c]cycloheptene-2,3,9-triol], for which the half-maximal inhibitory concentration (IC50) was in the range of 100 to 1000 nM.
The result for `CC[C@@]1(O)CC[C@@]2(Cc3ccccc3)c3ccc(C(=O)Nc4ccncc4C)cc3CCC[C@H]2C1` [Example 70] reads below 100 nM; that for `CCCOC[C@@]1(O)CC[C@@]2(Cc3ccccc3)c3ccc(C(=O)Nc4cccnc4C)cc3CCC[C@H]2C1` (racemic) [Example 101], below 100 nM.
